Test results reported in patent US12565520B2, “Chemically-stabilized allosteric modulators of leucine-rich repeat kinase 2 (LRRK2)” (UNIVERSITY OF GEORGIA RESEARCH FOUNDATION, INC., priority 2020, dated 2026).
Entries after “also recorded” stand apart in the source; their conditions may differ.

Tested on: endogenous LRRK2 kinase activity as Rab10 phosphorylation
Test: Rab10 phosphorylation in untransfected A549 cells
Format: cell-based
Details: 10 μM
Description: To test whether disruption of LRRK2 dimerization can also attenuate Rab phosphorylation, a hyperactive LRRK2 mutant (R1441G) and Rab29 were overexpressed in HEK293T cells (Z. Liu et al., LRRK2 phosphorylates membrane-bound Rabs and is activated by GTP-bound Rab7L1 to promote recruitment to the trans-Golgi network. Hum Mol Genet 27, 385-395 (2018); and E. Purlyte et al., Rab29 activation of the Parkinson's disease-associated LRRK2 kinase. The EMBO Journal 37, 1-18 (2018)). Overexpression of Rab29 induces recruitment of LRRK2 to the trans-golgi network (TGN) and activates it there. After 24-hour transfection, cells were then treated with 10 μM peptide for 15 hours. […] To test the effect of the dimerization inhibitors on endogenous LRRK2 function, we performed a similar experiment using non-transfected A549 cells which natively express detectable levels of both LRRK2 and Rab10.

Roc-domain stapled peptide formed from SEQ ID NO. 6 DEKQRKAC(Nle)SKITKEXLNKX, X = (S)-2-(4′-pentenyl)alanine; PEG3 linker, FAM or biotin label (DEKQRKACXSKITKEXLNKX; hydrocarbon staple; Nle; PEG3 linker; FAM or biotin; ROC domain petide; (9)..(9) Xaa is norleucine; (16)..(16) Xaa is (S)-2-(4′-pentenyl)alanine; (20)..(20) Xaa is (S)-2-(4′-pentenyl)alanine) [LRIP4]
Rab10 phosphorylation by endogenous LRRK2: significant reduction in phosphorylation of Rab10; also recorded: inhibition of Rab10 phosphorylation
